In patent US5187082A, “Process for producing A83850 antibiotics” (Eli Lilly and Company, priority 1990, dated 1993):
≈ marks a conversion by molar mass, not a printed value.

Assays:
[1] = test system: Enterococcus faecalis 2041; assay type: cell-based; settings: Enterococcus faecalis, 2041
Description: (§1) The MIC's in Table VII were determined by standard agar-dilution assays.

Enterococcus faecium X66 = assay type: cell-based; settings: Enterococcus faecium, X66
Description: as §1

[2] = test system: Staphylococcus aureus V41; assay type: cell-based; settings: Staphylococcus aureus, V41
Description: as §1

[3] = test system: Staphylococcus aureus X1.1; assay type: cell-based; settings: Staphylococcus aureus, X1.1
Description: as §1

[4] = test system: Staphylococcus aureus X400; assay type: cell-based; settings: Staphylococcus aureus, X400
Description: as §1

[5] = test system: Staphylococcus epidermidis 222; assay type: cell-based; settings: Staphylococcus epidermidis, 222
Description: as §1

[6] = test system: Staphylococcus epidermidis 270; assay type: cell-based; settings: Staphylococcus epidermidis, 270
Description: as §1

[7] = test system: Streptococcus pyogenes C203; assay type: cell-based; settings: Streptococcus pyogenes, C203
Description: as §1

[8] = test system: Streptococcus pneumoniae Park 1; experiment: microbe, parasite or virus in culture; assay type: cell-based; settings: Streptococcus pneumoniae, PARK1
Description: as §1

[9] = test system: Peptostreptococcus anaerobius; experiment: Activity against anaerobic bacteria, agar-dilution MIC; assay type: cell-based; settings: 24 h
[10] = test system: Peptostreptococcus intermedius; experiment: as above; assay type: cell-based; settings: Peptostreptococcus, 24 h
Propionibacterium acnes = experiment: as above; assay type: cell-based; settings: Cutibacterium acnes, 24 h
Bacteriodes fragilis = experiment: as above; assay type: cell-based; settings: 24 h
[11] = test system: Bacteriodes melaninogenicus; experiment: as above; assay type: cell-based; settings: 24 h
Bacteroides corrodens = experiment: as above; assay type: cell-based; settings: Eikenella corrodens, 24 h
Staphylococcus aureus = experiment: In vivo activity against experimentally-induced infection in mice; settings: doses administered subcutaneously to mice 1 and 4 hours postinfection
Description: (§2) The A83850 antibiotics have also shown in vivo antimicrobial activity against experimentally-induced infections in laboratory animals. When two doses of test compound were administered to mice experimentally infected with the test organism, the activity observed was measured as an ED50 value [effective dose in mg/kg to protect 50% of the test animals: see Warren Wick, et al., J. Bacteriol. 81, 233-235 (1961)].
(§3) ^a mg/kg × 2; doses administered subcutaneously to mice 1 and 4

Streptococcus pneumoniae = experiment: as above; settings: doses administered subcutaneously to mice 1 and 4 hours postinfection
Description: as §2, §3

Streptococcus pyogenes = experiment: as above; settings: doses administered subcutaneously to mice 1 and 4 hours postinfection
Description: as §2, §3

[12] = test system: Culture A83850 (Amycolatopsis albus NRRL 18532); experiment: Resistance of culture A83850 to antibiotics, sensitivity discs on seeded ISP No. 2 agar plates; assay type: cell-based; settings: disc content printed per antibiotic
Description: Resistance to antibiotics was measured by padding antibiotic sensitivity discs onto the surface of seeded ISP No. 2 agar plates.

Clostridium perfringens = experiment: microbe, parasite or virus in culture; settings: 24 h
Clostridium septicum = experiment: microbe, parasite or virus in culture; settings: 24 h
Eubacterium aerofaciens = experiment: microbe, parasite or virus in culture; settings: Collinsella aerofaciens, 24 h
Fusobacterium symbiosum = experiment: microbe, parasite or virus in culture; settings: 24 h
[13] = test system: Fusobacterium necrophorum; experiment: microbe, parasite or virus in culture; settings: 24 h
Clostridium difficile = experiment: Activity against anaerobic bacteria, agar-dilution MIC; settings: Clostridioides difficile, 24 h
[14] = test system: Peptococcus asaccharolyticus; experiment: as above; settings: Peptoniphilus asaccharolyticus, 24 h
Peptococcus prevoti = experiment: as above; settings: 24 h
[15] = test system: Bacteriodes thetaiotaomicron; experiment: as above; settings: 24 h
Bacteriodes vulgatis = experiment: as above; settings: 24 h

Compound CN[C@H](CC(C)C)C(=O)N[C@H]1C(=O)N[C@@H](CC(N)=O)C(=O)N[C@H]2C(=O)N[C@H]3C(=O)N[C@H](C(=O)N[C@H](C(=O)O)c4cc(O)cc(O)c4-c4cc3ccc4O)[C@H](O)c3ccc(c(Cl)c3)Oc3cc2cc(c3O[C@@H]2O[C@H](CO)[C@@H](O)[C@H](O)[C@H]2O[C@H]2C[C@](C)(N)[C@H](O)[C@H](C)O2)Oc2ccc(cc2Cl)[C@H]1O [Vancomycin, vancomycin, reference compound] has an MIC [1] of 4 µg/mL (≈ 2.76 µM), an MIC (Enterococcus faecium X66) of 1 µg/mL (≈ 0.69 µM) and an MIC [2] of 0.5 µg/mL (≈ 0.345 µM). For the same compound, the MIC [3] was 0.5 µg/mL (≈ 0.345 µM), the MIC [4] was 1 µg/mL (≈ 0.69 µM) and the MIC [5] was 1 µg/mL (≈ 0.69 µM). The MIC [6] was 1 µg/mL (≈ 0.69 µM), the MIC [7] was 0.5 µg/mL (≈ 0.345 µM) and the MIC [8] was 0.5 µg/mL (≈ 0.345 µM). For the same compound, the MIC [9] was 1 µg/mL (≈ 0.69 µM), the MIC [10] was 2 µg/mL (≈ 1.38 µM) and the MIC (Propionibacterium acnes) was 4 µg/mL (≈ 2.76 µM). It also gave an MIC (Bacteriodes fragilis) of 16 to 32 µg/mL (≈ 11 to 22.1 µM), an MIC [11] of 128 µg/mL (≈ 88.3 µM) and an MIC (Bacteroides corrodens) of 32 µg/mL (≈ 22.1 µM). The “ED50 Value” (Staphylococcus aureus) was 1.43 mg/kg × 2, the “ED50 Value” (Streptococcus pneumoniae) was 0.67 mg/kg × 2 and the “ED50 Value” (Streptococcus pyogenes) was 0.98 mg/kg × 2. For the same compound, the “Resistance or inhibition of culture A83850 by antibiotic disc” value [12] was “inhibited”, the MIC (Clostridium perfringens) was 2 µg/mL (≈ 1.38 µM) and the MIC (Clostridium septicum) was 2 µg/mL (≈ 1.38 µM). For the same compound, the MIC (Eubacterium aerofaciens) was 8 µg/mL (≈ 5.52 µM), the MIC (Fusobacterium symbiosum) was 2 µg/mL (≈ 1.38 µM) and the MIC [13] was 1 µg/mL (≈ 0.69 µM). It also gave an MIC (Clostridium difficile) of 2 µg/mL (≈ 1.38 µM), an MIC [14] of 4 µg/mL (≈ 2.76 µM) and an MIC (Peptococcus prevoti) of 4 µg/mL (≈ 2.76 µM). For the same compound, the MIC [15] was 64 µg/mL (≈ 44.2 µM) and the MIC (Bacteriodes vulgatis) was 16 µg/mL (≈ 11 µM).
